We go through two molecules from patent US12577341B2, “Copolymer derived from substituted benzopinacol and use of the same as polymerization initiator” (BASF COATINGS GMBH, priority 2020, dated 2026).

Series [1] can be described thus: Dissolution of the initiator in the monomer solution (appearance of the resulted mixture). The format is physicochemical. As to the method: A monomer solution was prepared by mixing 90 g of trimethylolpropane triacrylate (TMPTA) and 2 g of butyl glycol under stirring. 4 g of the copolymeric initiator system was added into the monomer solution and stirred under room temperature for 1 hour.
A monomer solution was prepared by mixing 90 g of TMPTA, 2 g of butyl glycol, 0.24 g of chloroform and 1.76 g solvent naphtha 160/180 under stirring. 1 g of benzopinacol fine powder was added into the monomer solution and stirred under room temperature for 1 hour.
A monomer solution was prepared by mixing 90 g of TMPTA and 10 g of butyl glycol under stirring. 1 g of fine benzopinacol fine powder was added into the monomer solution and stirred under room temperature for 1 hour.
A monomer solution was prepared by mixing 90 g of TMPTA and 10 g of butyl glycol by stirring. 1 g of the compound of formula (I) was added into the monomer solution and stirred under room temperature for 1 hour.

For series [2] the following is noted: cited from earlier work.
The mark [3] stands for this setting: 1 g in 90 g TMPTA and 10 g butyl glycol, stirred at room temperature for 1 hour.

In the case of `OC(c1ccccc1)(c1ccccc1)C(O)(c1ccccc1)c1ccccc1` [benzopinacol, 1,1,2,2-tetraphenyl-1,2-ethanediol], the “Appearance of resulted mixture” value is reported as “transparent liquid with suspended fine particles” in series [1] (1 g fine powder in 90 g TMPTA, 2 g butyl glycol, 0.24 g chloroform and 1.76 g solvent naphtha 160/180, stirred at room temperature for 1 hour); “transparent liquid with suspended fine particles” in series [1] (setting [3]). Besides, in series [2], the “Solubility in common organic solvents” value is given as “very poor solubility”.

With `C=CCOC(=O)c1ccc(C(O)(c2ccccc2)C(O)(c2ccccc2)c2ccc(C(=O)OCC=C)cc2)cc1` (stereo not shown) [compound of formula (I), allyloxycarbonyl substituted benzopinacol of formula (I)], the “Appearance of resulted mixture” value in series [1] (setting [3]) is on record as “transparent liquid with suspended fine particles”.
